A short description of series [1]: Clearance in Sprague-Dawley rat at 5 mg/kg, iv measured after 48 hrs by LC-MS analysis. The settings on record: in vivo, iv, 5 mg/kg, 48 h. The class given is ADME, organism-based.
Series [2] in a line: Plasma protein binding in rat at 1 uM incubated for 5 hrs by LC-MS analysis. In kind it is ADME, cell-free. As to conditions: read-out: PPB (converted).
Series [3] is described as follows: Microsomal stability in rat liver microsomes assessed as half life at 1 uM measured upto 120 mins in presence of NADPH by LC-MS analysis. In kind it is ADME, Microsome.
A short description of series [4]: Drug distribution in NOD-SCID mouse kidney at 40 mg/kg, po administered for 25 days by LC-MS analysis. The class given is ADME, organism-based. As to conditions: in vivo, 600 h, time 25 day.
The nature of series [5]: Acute toxicity in BALB/c mouse assessed change in behavior at 400 mg/kg, po. The class given is organism-based. The settings on record: in vivo.
Series [6] in a line: Microsomal stability in mouse liver microsomes assessed as half life at 1 uM measured upto 120 mins in presence of NADPH by LC-MS analysis. The class given is ADME, Microsome. A general note: Microsomes from liver hold many membrane-bound enzymes, among them those of drug oxidation.
Series [7] in a line: Tmax in Sprague-Dawley rat at 15 mg/kg, po measured after 48 hrs by LC-MS analysis. The class given is ADME, organism-based. As to conditions: in vivo.
Series [8] has as its system Raji. The series can be described thus: Antiproliferative activity against human Raji cells assessed as cell growth inhibition at 0.2 uM preincubated with uridine for 24 hrs followed by compound addition and measured after 72 hrs by MTT assay. The class given is functional. The arrangement: scale not given: the % may be the effect or the level left.
Series [9] deals with Raji. The experiment in a line: Antiproliferative activity against human Raji cells assessed as cell growth inhibition at 0.1 uM preincubated with uridine for 24 hrs followed by compound addition and measured after 72 hrs by MTT assay. The class given is functional. The arrangement: scale not given: the % may be the effect or the level left.
The nature of series [10]: Acute toxicity in BALB/c mouse assessed as effect on liver at 400 mg/kg, po measured on day 14 by H and E staining based assay. The class given is organism-based. As to conditions: in vivo, 336 h, time 14 day.
Series [11] can be described thus: AUC(0 to t) in Sprague-Dawley rat at 15 mg/kg, po measured after 48 hrs by LC-MS analysis. The settings on record: in vivo. The arrangement: dose 15 mg/kg, time 48 hrs, route po. In kind it is ADME, organism-based.
Series [12] relates to Mus musculus. The series can be described thus: Toxicity in NOD-SCID mouse xenografted with human Raji cells assessed as change in uric acid level at 40 mg/kg, po administered for 25 days. In kind it is organism-based. The settings on record: in vivo, 600 h, time 25 day.
The test system of series [13] is THP-1. The experiment in a line: Antiproliferative activity against human THP-1 cells assessed as cell growth inhibition incubated for 96 hrs by MTT assay. The settings on record: THP-1, 96 h. The class given is functional, cell-based.

Each structure is given as a SMILES string.

For orientation: half-life means the time needed for the level to fall by half in the phase considered. The Tmax is the time at which the peak concentration occurs. Broadly, the AUC(0-t) is the area under the concentration-time curve up to a stated or last time point. By IC50 is commonly meant the concentration that gives 50% inhibition. In [1], `C/C(O)=C(\C#N)C(=O)Nc1cc(O[C@@H](C)C(F)(F)F)c(C(=O)Nc2c(F)cccc2F)cc1F` registered a CL of 10 mL/min/kg. Moreover, the fraction unbound at 5 h, 1 µM in series [2] was 0.014. In addition, the half-life at 1 µM came to 1.43 h in series [3] and 8.25 h in series [6]. In addition, the Drug uptake entry in series [4] was “Active”. In addition, the Activity result in series [5] is recorded as “Non-Toxic”; in series [8], 17.1%; in [9], 6.2%; in series [10] it was “Non-Toxic”; in [12], “Non-Toxic”. Also, the Tmax in [7] is 18 h. Moreover, the AUC(0-t) at 48 h in series [11] amounted to 29500 ng·h/mL. In addition, in series [13], the IC50 came to 20 nM.

Values taken from ChEMBL document CHEMBL5053556, “Design, Synthesis, and Biological Evaluation of a Novel Series of Teriflunomide Derivatives as Potent Human Dihydroorotate Dehydrogenase Inhibitors for Malignancy Treatment” (J Med Chem, 2021).
